Values after ≈ are worked out from the molar mass of the structure shown. “Also recorded” adds a separate entry of the source. Read-outs that look alike come from different tables or passages of the source.
What was measured:
[1] = system: Ishikawa (endometrial) cancer cell line; assay: CellTiter-Glo antiproliferative activity, Ishikawa cell line; type: cell-based, human; conditions: 72 h exposure; for IC50: Homo sapiens, Ishikawa
Text: Numerous substituted THIQs were systematically synthesized employing molecular design and structure activity relationship studies (Suresh et al., (2014) Lett. Drug Design & Discov. 11: 428-436; Gangapuram et al., (2014) J. Cancer Sci. Ther. 6: 161-169). The compounds' cytotoxic effects on MCF-7 (estrogen receptor positive breast cancer) cell lines, MDA-MB-231 (estrogen receptor negative breast cancer) cell lines and Ishikawa cell lines using CellTiter-Glo (CTG) luminescent cell viability essay were studied. The tests were done on different concentrations of the compounds ranging from 0.01 to 100,000 nM on 5000 MCF-7 cells/well, on 5000 MDA-MB-231 cells/well and on 5000 Ishikawa cells/well. Drug exposed cells were incubated at 37° C. for three days followed by CTG assay. Then IC50 values were generated from Graph Pad Prism 4. […]
(§1) The antiproliferative activities of substituted tetrahydroisoquinolines 2a-2m, 3a-3l and 4a-4f were evaluated according to the procedure reported previously (Crouch et al., (1993) J. Immunol. Methods 160: 81-88).
(§2) Human MCF-7 and MDA-MB-231 breast cancer cell lines were purchased from the NCI. The human Ishikawa endometrial cancer cell line was purchased from Sigma Aldrich. All three cell lines were cultured in phenol red-free RPMI-1640 (Hyclone) (500 mL) supplemented with L-glutamine-dipeptide (Hyclone) (5 mL), and 10% fetal bovine serum (Atlanta Biologicals) (50 mL).
(§3) The cell lines were cultured and treated with compounds under study including the standard TAM ranging from 0.01 nM to 100,000 nM concentration in the presence of 10 nM estradiol using the previous reported method (Suresh et al., (2014) Lett. Drug Des. Discov. 11: 428-436).
(§4) The amount of ATP is determined using a system based on luciferase and D-luciferin resulting in light generation.

[2] = system: MCF-7 (ER positive breast cancer cell line); assay: CellTiter-Glo antiproliferative activity, MCF-7 cell line; type: cell-based, human; conditions: for IC50: Homo sapiens, MCF7, read-out: IC50 MCF-7
Text: (§5) Numerous substituted THIQs were systematically synthesized employing molecular design and structure activity relationship studies (Suresh et al., (2014) Lett. Drug Design & Discov. 11: 428-436; Gangapuram et al., (2014) J. Cancer Sci. Ther. 6: 161-169). The compounds' cytotoxic effects on MCF-7 (estrogen receptor positive breast cancer) cell lines, MDA-MB-231 (estrogen receptor negative breast cancer) cell lines and Ishikawa cell lines using CellTiter-Glo (CTG) luminescent cell viability essay were studied. The tests were done on different concentrations of the compounds ranging from 0.01 to 100,000 nM on 5000 MCF-7 cells/well, on 5000 MDA-MB-231 cells/well and on 5000 Ishikawa cells/well. Drug exposed cells were incubated at 37° C. for three days followed by CTG assay. Then IC50 values were generated from Graph Pad Prism 4.
(§6) Chemistry: Several substituted tetrahydroisoquinolines 2d-2m, 3h, 3k, 3l, and 4a-4f were prepared according to three different procedures as shown in Schemes 1, 2 and 3 (FIGS. 2-4). […] The aminating agent 10 was prepared using a reported procedure (Tamura et al., (1972) J. Org. Chem. 40: 4133-4135). The amino salts of ring substituted 2-aminoisoquinolinium mesitylenesulfonates of general structure 11 used in the present study were prepared by the reaction of substituted isoquinolines and the aminating agent 10 as previously reported (Gangapuram et al., (2014) J. Cancer Sci. Ther. 6: 161-169). […] The aminating agent 13 was prepared using a reported procedure (Legault & Charette (2003) J. Org. Chem. 68: 7119-7122). The amino salts of ring substituted 2-aminoisoquinolinium compounds of general structure 14 were obtained with the reaction of the substituted isoquinolines and the aminating agent 13 in CH3CN heated at 50° C. for 24 hours. Without further purification, the salts were used to prepare the N-ylides by reaction with substituted acyl/sulfonyl chlorides. […] N-Oxidation of commercially available ring substituted THIQs followed by the reduction of the NO group using standard zinc/acetic acid led to the synthesis of N-amino THIQs.
as §1, §2, §3, §4

[3] = system: MDA-MB-231 (ER negative breast carcinoma cell line); assay: CellTiter-Glo antiproliferative activity, MDA-MB-231 cell line; type: cell-based, human; conditions: 72 h exposure; for IC50: Homo sapiens, MDA-MB-231
Text: as §5, §6, §1, §2, §3

[4] = system: MCF-7, MDA-MB-231, and Ishikawa cell lines; assay: Antiproliferative activity, summary statements over the three cell lines; type: cell-based, human; conditions: MCF-7, MDA-MB-231 and Ishikawa cell lines together
Text: as §5, §6, §1, §2, §3

[5] = Table 1, in the presence of 10 nM estradiol
[6] = Table 1, 72 h exposure, in the presence of 10 nM estradiol
[7] = Table 1, in the presence of 10 nM estradiol, read-out: IC50 Ishikawa
[8] = Table 2, estradiol added, read-out: IC50 Ishikawa
[9] = Table 2, 72 h exposure, estradiol added
[10] = in the presence of 10 nM estradiol

With `CC(C)(C)c1ccc(C(=O)NN2CCc3c(cccc3OCc3ccccc3)C2)cc1` [Compound 3e, N-(5-(Benzyloxy)-3,4-dihydroisoquinolin-2(1H)-yl)-4-(tertbutyl) benzamide] as the compound, how does the “IC50 Ishikawa” value [1, 5] read?
Its value is >41.45 µg/mL.

What about the “IC50 MCF-7” value [2, 6] of the same compound?
Its value is >41.45 µg/mL.

And the “IC50 MDA-MB-231” value [3, 5]?
Its value is >41.45 µg/mL.

For `CCc1ccc(C(=O)NN2CCc3cc(OC)c(OC)cc3C2)cc1` [Compound 4b, N-(6,7-Dimethoxy-3,4-dihydroisoquinolin-2(1H)-yl)-4-ethylbenzamide], which IC50 [1, 7] is on record?
The IC50 was > 34.1 µg/mL.

And the IC50 [2, 6]?
Its IC50 is > 34.1 µg/mL.

What about the IC50 [3, 5] of the same compound?
The IC50 was > 34.1 µg/mL.

What about the melting point of the same compound?
The melting point was 224 to 225 °C.

Which results are given for `CCc1ccc(C(=O)NN2CCc3ccc(Cl)cc3C2)cc1` [Redda-EVK-I-132, N-(7-Chloro-3,4-dihydroisoquinolin-2(1H)-yl)-4-ethylbenzamide]?
IC50 [1, 8]: 0.318 µg/mL (≈ 1.01 µM); IC50 [2, 9]: 0.678 µg/mL (≈ 2.15 µM); IC50 ([3]; Table 2, estradiol added): 0.826 µg/mL (≈ 2.62 µM)

Which results are given for `CC(C)(C)c1ccc(C(=O)NN2CCc3c(O)cccc3C2)cc1` [Compound 3b, 4-(tert-butyl)-N-(5-Hydroxy-3,4-dihydroisoquinolin-2(1H)-yl) benzamide]?
IC50 Ishikawa [1, 5]: 10.96 µg/mL; IC50 MCF-7 [2, 6]: 7.92 µg/mL; IC50 MDA-MB-231 [3, 5]: 10.25 µg/mL

Which “IC50 Ishikawa” value [1, 5] does the source give for `CCc1ccccc1C(=O)NN1CCc2ccc(O)cc2C1` [Compound 2g, 2-Ethyl-N-(7-hydroxy-3,4-dihydroisoquinolin-2(1H)-yl) benzamide] here?
The value was >29.64 µg/mL.

And the “IC50 MCF-7” value [2, 6]?
The value was >29.64 µg/mL.

What about the “IC50 MDA-MB-231” value [3, 5] of the same compound?
The value was >29.64 µg/mL.

With `CCc1ccc(C(=O)NN2CCc3cccc(O)c3C2)cc1` [Compound 2i, 4-Ethyl-N-(8-hydroxy-3,4-dihydroisoquinolin-2(1H)-yl) benzamide] as the compound, how does the “IC50 against Ishikawa cell line” value [1, 10] read?
The value was 0.09 µg/mL.

And the “IC50 against MCF-7 cell line” value ([2]; 72 h exposure, in the presence of 10 nM estradiol)?
Its value is 0.61 µg/mL.

What about the “selectivity towards ER(+) MCF-7 compared to ER(−) MDA-MB-231 cell lines” value ([2]; MCF-7 versus MDA-MB-231 IC50) of the same compound?
The value was “significant selectivity; also recorded: reasonable selectivity”.

What about the “antiproliferative activity against MCF-7 cell line in words” value ([2]; based on IC50 value) of the same compound?
Its value is “very active”.

And the “IC50 against MDA-MB-231 cell line” value [3, 10]?
The value was 1.36 µg/mL.

And the “antiproliferative activity in words” value [4]?
Its value is “active”.

Which results are given for `CCc1ccc(C(=O)NN2CCc3cc(Cl)ccc3C2)cc1` [Compound 4e, N-(6-Chloro-3,4-dihydroisoquinolin-2(1H)-yl)-4-ethylbenzamide]?
IC50 ([1]; in the presence of 10 nM estradiol, read-out: IC50 against Ishikawa cell line): < 7.87 µg/mL; IC50 [1, 7]: 0.98 µg/mL; IC50 [2, 6]: 2.49 µg/mL; IC50 [3, 5]: 3.74 µg/mL; melting point: 205 to 206 °C

With `CCc1ccc(C(=O)NN2CCc3ccccc3C2c2ccco2)cc1` (stereo not shown) [Redda-EVK-I-135, 4-Ethyl-N-(1-(furan-2-yl)-3,4-dihydroisoquinolin-2(1H)-yl)benzamide] as the compound, how does the IC50 [1, 8] read?
Its IC50 is 1.71 µg/mL (≈ 4.94 µM).

And the IC50 [2, 9]?
Its IC50 is 2.39 µg/mL (≈ 6.9 µM).

And the IC50 ([3]; Table 2, estradiol added)?
The IC50 was 3.88 µg/mL (≈ 11.2 µM).

What does the source list for `CCc1ccc(C(=O)NN2CCc3cc(C(=O)O)ccc3C2)cc1` [Compound 3k, 2-(4-Ethylbenzamido)-1,2,3,4-tetrahydroisoquinoline-6-carboxylic acid]?
IC50 [1, 7]: > 32.4 µg/mL; IC50 [2, 6]: > 32.4 µg/mL; IC50 [3, 5]: > 32.4 µg/mL; melting point: 251 to 253 °C

Which “IC50 Ishikawa” value [1, 5] does the source give for `COc1cccc2c1CCN(NC(=O)c1ccc(C(C)(C)C)cc1)C2` [Compound 3a, 4-(tert-butyl)-N-(5-Methoxy-3,4-dihydroisoquinolin-2(1H)-yl) benzamide] here?
Its value is >33.84 µg/mL.

What about the “IC50 MCF-7” value [2, 6] of the same compound?
Its value is >33.84 µg/mL.

What about the “IC50 MDA-MB-231” value [3, 5] of the same compound?
Its value is >33.84 µg/mL.

What does the source list for `CCc1ccc(C(=O)NN2CCc3cc(C(=O)OC)ccc3C2)cc1` [Compound 3h, methyl-2-(4-ethylbenzamido)-1,2,3,4-tetrahydroisoquinoline-6-carboxylate]?
IC50 [1, 7]: 8.64 µg/mL; IC50 [2, 6]: 15.2 µg/mL; IC50 [3, 5]: 16.1 µg/mL
